Assay results as given in patent US7803768B2, “Method for treatment of hyperglycemia in a subject in need thereof” (Kyoto University, priority 2005, dated 2010).
Where no end group is shown, it is not given here. [ ]: non-standard residue; d: D form. The star is where a group is joined. Octanoyl = CCCCCCCC(=O)*

Assays:
[1] = tested on: neonatal rat STZ model; assay: neonatal rat STZ model, human ghrelin or GHRP-2 (Examples 3 and 4); type: in vivo, Sprague Dawley rats; settings: 9th week after birth; for Body weights: FIG. 7A / FIG. 8A; for Pancreas weights: FIG. 7B / FIG. 8B; for Insulin Content (Gut Side): calculated from gut-side pancreas sample; for Insulin Content (Gut Side) / Insulin Content (Spleen Side): mean ± SE; for Insulin Content (Spleen Side): calculated from spleen-side pancreas sample
Text: Sprague Dawley female pregnant rats, purchased from Charles River, were allowed free access to tap water and a standard pellet rat diet (CRF-1, Oriental Yeast Co., Ltd.), and natural deliveries were allowed. Three experimental groups as follows were set: control group wherein rats received single peritoneal injection of citrate buffer immediately after birth; STZ-vehicle group wherein rats received single peritoneal injection of STZ, and then vehicle (5% mannitol solution) was subcutaneously administered twice a day from the 2nd day after birth for 7 days; and STZ-human ghrelin group wherein rats received single peritoneal injection of STZ, and then human ghrelin (sequence No. 1, 100 μg/kg body weight) was subcutaneously injected twice a day from a 2nd day after birth for 7 days.
STZ was prepared and administered as in the example 1. Each male neonatal rat was checked for urinary sugar on the 2nd day with Pretest 3aII (Wako Pure Chemical Industries, Ltd.). Only rats that were glycosuric (3+ value with Pretest 3aII) at day 2 after birth were included in the following studies. The rats were weaned in the evening on the 20th day after birth. Blood samples were collected from tail vein while awake at 8th week (57th day) after birth to measure plasma glucose and insulin concentrations. In addition, after measuring body weight at 9th week (62nd or 63rd day) after birth, blood samples were collected from abdominal aorta under anesthesia with intraperitoneal injection of pentobarbital sodium (50 mg/kg). Whole pancreases were removed and weighed. Thereafter, the pancreases were divided into two pieces and kept for insulin content measurement. Blood samples were centrifuged immediately at 4° C. to prepare plasma samples, and kept at −80° C. until measurement of glucose and insulin concentrations. Glucose concentration was measured using a Glucose CII-test Wako (Wako Pure Chemical Industries, Ltd.), while insulin concentration was measured using a highly sensitive insulin measurement kit (Morinaga Institute of Biological Science, Inc.).
Experimental materials, experimental methods and evaluation methods were similar to those in the example 2. As a test substance, 100 μg/kg of GHRP-2 was subcutaneously administered twice a day from a 2nd day after birth for 7 days (an STZ-GHRP-2 group).

[2] = tested on: n0-STZ model; assay: n0-STZ model: neonatal streptozotocin-treated rats given rat ghrelin (Example 1); type: in vivo, Sprague Dawley rats; settings: for Plasma Insulin: 100 μg/kg s.c. twice a day, 2nd to 8th day after birth, mean ± SE
Text: Female or male Sprague Dawley rats, purchased from Charles River were, were allowed free access to tap water and a standard pellet rat diet (352 kcal/100 g, CE-2, CLEA). Females were caged with a male for one night, and pregnancy was detected by abdominal palpation 14 days later. Natural birth occurred 22 days after mating. We examined three experimental groups as follows: a control group (Sprague Dawley rats) wherein newborn rats received a single intraperitoneal injection of citrate buffer; an n0-STZ group wherein rats received a single intraperitoneal injection of streptozotocin (STZ); and an n0-STZ/ghrelin group wherein rats received a single intraperitoneal injection of streptozotocin, and then received rat-derived ghrelin (hereafter reffered to as rat ghrelin, sequence No. 3, 100 μg/kg body weight) by subcutaneous injection twice a day on the 2nd to 8th day after birth for 7 days.
Streptozotocin (Sigma, 100 mg/kg body weight) was dissolved in citrate buffer (0.05 mmol/L, pH4.5) and immediately injected intraperitoneally once into a rat immediately after birth. Pups were left with their mothers. Each neonatal rat was checked for urinary sugar on the 2nd day with Multistix SG (Bayer Medical). Only rats that were glycosuric (3+ value with Multistix SG test) at day 2 after birth were included in the n0-STZ model group. Animals were killed at 21 or 70 days by bleeding under anesthesia with intraperitoneal injection of pentobarbital sodium (50 mg/kg).
After excision, pancreases were removed and weighed. To measure insulin content, pancreases (35-50 mg) were homogenized and centrifuged in 5 ml of acid-ethanol (0.15 M HCl 75% (v/v)-ethanol solution), and the supernatants were kept at −80° C. For immunohistochemistry, additional pancreases were fixed in 4% paraformaldehyde fixative for 24 hours, and embedded in paraffin.
Insulin and pdx-1 were detected immunohistochemically on 3 μm-thick tissue sections using an indirect peroxidase-labeling technique. Each section was incubated with a primary antibody (guinea pig anti-porcine insulin, DACO) or (rabbit anti-mouse/rat IDX-1; CHEMICON) for 1 hour. Staining was performed by incubation with 3,3′-diaminobenzidine tetrahydrochloride (DAB) kit (DakoCytomation). Quantitative evaluations of total β cells area were performed by a computer-assisted image analysis procedure using an Olympus BX 51 microscope connected to a digital camera DP 12 and Mac SCOPE Ver2.6 software (Mitani, Fukui, Japan). β cells area and total pancreatic section area were evaluated for each stained section. A relative volume of β cells was determined by a sterological morphological method, with calculation of the ratio between the areas occupied by immunoreactive cells and those occupied by total pancreatic cells.
Total RNA was extracted from rat pancreases as previously reported (Biochem. Biophys. Res. Commun., 214, pp. 239-246, 1995). To synthesis the first-strand cDNA, the extracted products were used as templates in reactions containing RT (Invitrogen) and the target 3′ primer. An RT-PCR analysis was performed according to a method previously reported (Biochem. Biophys. Res. Commun., 214, pp. 239-246, 1995). The first strand cDNA was used in subsequent PCR analyses. In the PCR analyses, oligonucleotide primers as follows were used for each target cDNA. The identity of the PCR product was confirmed by agarose gel electrophoresis.
Realtime PCR was performed as follows. The cDNA (1 μl) was mixed with 2×PCR Master Mix (Applied Biosystems) (25 μl), sterilized distilled water (23 μl), and sense and antisense primers ([…], 0.5 μl) of insulin and Pdx-1. Forty cycles of PCR amplification were carried out using the thermal cycler system (ABI PRISM 7700, Applied Biosystems, Japan), for 15 seconds at 95° C. followed by 60 seconds at 60° C. The concentration of each mRNA product was quantified using calibration curves expressing the fluorescence intensity against the amount of standardized PCR product. […]

[3] = tested on: β cells; assay: β cell replication, phospho-histone H3 / insulin double staining of pancreatic sections (Example 2); type: in vivo, rat; settings: for Double positive cells for phospho-histone H3 and insulin: 10-week-old rats, FIG. 6, no significant difference among four groups; for Increase of double positive cells for phospho-histone H3 and insulin: 21-day-old rats, FIG. 5B
Description: Pancreatic sections that had not been used for morphological studies were used to examine β cell replication. The sections were subjected to double staining for phospho-histone H3 (Ser10) and insulin. The sections were incubated overnight with 50-fold dilution of anti-phospho-histone H3 (Ser10) antibody (Cell Signaling Technology) at 4° C. Thereafter, the sections were incubated with guinea pig anti-insulin antibody at a room temperature for 1 hour. After washing with PBS for 6 times, the sections were incubated at a room temperature for 30 minutes in a blocking solution with a secondary antibody conjugated with fluorescence (Alexa Fluor 488 and 546, Molecular Probe). After washing with PBS, sections were mounted with mounting medium containing DAPI (Vector Laboratories) and examined with confocal laser scanning microscopy (Leica Microsystems). At least 1,000β cells were counted per section.

[4] = tested on: high fatty acid diet-fed mice; assay: high fatty acid diet-fed mice with linoleic acid loading (Example 5); type: in vivo, Crj:CD1(ICR) mice
Text: Male Crj:CD1(ICR) mice (Charles River Japan) were allowed free access to tap water and a standard pellet mouse diet (CRF-1, Oriental Yeast Co., Ltd.) (with lighting hours from 21 to 9 o'clock). Normal control mice were kept in this condition (normal diet, an ND group). A high fatty acid diet group (High Fat Diet, an HFD group) was allowed to freely take a mixture of 5 g CRF-1 (powder) with 1 g linoleic acid as a high fatty acid diet from the 4th week after birth. As test substances, a vehicle (5% mannitol solution) (an HFD-vehicle group) or 300 μg/kg of human ghrelin (an HFD-ghrelin group) was administered twice a day (once a day in a holiday) for about 7 weeks from the day of the start of high fatty acid diet load. Changes in the body weights and ad lib blood sugar levels after the start of test substance administration were monitored. In addition, mice were fasted overnight on the 50th day from the start of test substance administration, and then linoleic acid (1 mL/kg, intraperitoneal administration) was acutely loaded on a next day to measure plasma glucose and plasma insulin concentrations 1 hour later. The blood sugar value was measured using Antisense II (Horiba, Ltd.), while plasma glucose concentration and insulin concentration were measured using a Glucose CII-test Wako (Wako Pure Chemical Industries, Ltd.) and a Lebis insulin kit (TMB for a mouse) (Shibayagi Co. Ltd.), respectively.

“A[dW]AW[dF]K-NH2 [GHRP-2, reference compound]” was tested, and the “Insulin contents in pancreases relative to the STZ-vehicle group” value [1] was “higher than those of the STZ-vehicle group”, the Body weights [1] was “not significantly different from those of the control group” and the Pancreas weights [1] was “greater than those of the STZ-vehicle group”. For the same substance, the “Insulin Content (Gut Side)” value [1] was 81.7 ± 4.6 μg/pancreas and the “Insulin Content (Spleen Side)” value [1] was 146.8 ± 10.9 μg/pancreas.
With “GSS(n-octanoyl)FLSPEHQKAQQRKESKKPPAKLQPR [rat ghrelin]” the “Plasma Insulin” value ([2]; 10-week-old rats) was 0.93 ± 0.49 ng/mL, the “Plasma Insulin” value ([2]; 21-day-old rats) was 0.35 ± 0.17 ng/mL and the “Insulin mRNA expression levels within the pancreases” value ([2]; 21st day after birth, FIG. 1A) was “returned to levels similar to those of the control group”. For the same substance, the “pdx-1 gene expression levels in pancreas” value ([2]; 21st day after birth, FIG. 2A) was “recovered to the levels similar to those in the control group”, the “Islet of Langerhans size, insulin immunostaining of pancreases” value ([2]; 21st day after birth, FIGS. 1B-E) was “larger than that of the n0-STZ group but smaller than that of the control group” and the “Pdx-1 gene expression in pancreas” value ([2]; 70th day after birth (adult rats), FIG. 4A) was “returned to the level close to that of the control group”. The “Insulin mRNA expression in pancreas” value ([2]; 70th day after birth (adult stage), FIG. 3B) was “a level similar to that of the control group”, the “Islet of Langerhans size, insulin immunohistochemical staining” value ([2]; 70th day after birth, FIGS. 3C-F) was “larger than that of the n0-STZ group but smaller than that of the control group” and the “Double positive cells for phospho-histone H3 and insulin” value ([3]; STZ model) was “tendency for double positive cells for phospho-histone H3 and insulin to increase”. For the same substance, the “Double positive cells for phospho-histone H3 and insulin” value ([3]; control group (no STZ)) was “tended to decrease”, the “Increase of double positive cells for phospho-histone H3 and insulin” value ([3]; ghrelin group as compared to control rats) was “approximately 1.7 fold” and the “Increase of double positive cells for phospho-histone H3 and insulin” value ([3]; n0-STZ/ghrelin group as compared to n0-STZ rats) was roughly 15 fold.
With “GSS(n-octanoyl)FLSPEHQRVQQRKESKKPPAKLQPR (GSS(Octanoyl)FLSPEHQRVQQRKESKKPPAKLQPR; listed as Homo Sapiens) [human ghrelin]” the “Insulin contents in pancreases relative to the STZ-vehicle group” value [1] was “about twice as high as those of the STZ-vehicle group”, the Body weights [1] was “comparable to those of the control group” and the Pancreas weights [1] was “significantly greater than those of the STZ-vehicle group”. The “Insulin Content (Gut Side)” value [1] was 63.0 ± 6.7 μg/pancreas, the “Insulin Content (Spleen Side)” value [1] was 120.9 ± 14.1 μg/pancreas and the “ad lib blood sugar levels” value ([4]; 43rd day of high fatty acid diet and 300 μg/kg s.c. administration, FIG. 9B) was “tended to decrease as compared to the HFD-vehicle group”. For the same substance, the “Plasma glucose concentrations after linoleic acid loading” value ([4]; 1 hour after 1 mL/kg linoleic acid i.p., FIG. 10B) was “tended to be low as compared to the HFD-vehicle group”, the “Plasma glucose concentrations before linoleic acid loading” value ([4]; after 50 days of high fatty acid diet and 300 μg/kg administration, fasted overnight, mean of 8 mice ± standard error) was 141 ± 5 mg/dL and the “Plasma insulin concentrations after linoleic acid loading” value ([4]; after 50 days, fasted overnight, 1 hour after 1 mL/kg linoleic acid i.p., FIG. 10A) was “higher than those of the HFD-vehicle group”.
